Data as given in patent publication US6521283B1, “Non-thrombogenic surfaces” (Biocompatibles Limited, priority 1990, dated 2003).
Values joined by “and” are separate entries in the source; they are usually repeats but may differ in a detail not shown here. Identical values can stand only once. Marks after values point to notes of the source that are not given here.

Legend:
platelets = assay: quantitative platelet adhesion test (ATP luminometry) in fresh citrated whole human blood; type: cell-based
Protocol: A quantitative platelet adhesion test was carried out by immersing samples in fresh citrated whole human blood at room temperature for 30 minutes. Tubing samples were prepared in 3 cm lengths sealed at both ends (the blood being introduced into the sample by hypodermic needle), and constantly mixed using a spiral mixer (tests were carried out in triplicate). Blood used in this assay was obtained using the double syringe method.
After incubation the samples were washed in isotonic phosphate buffered saline (PBS) and extracted into 1% trichloro acetate (TCA) (w/v) in 2 mM ethylene diamine tetraacetic acid (EDTA) to liberate ATP from any platelets adhering to the walls of the tubing.
The amount of ATP present in the extractant was estimated using the LKB Pharmacia ATP assay kit and a luminometer.
The number of platelets adhering to the samples was estimated from a standard curve using ATP levels associated with a known number of platelets.

recalcified blood = assay: in-use simulation: recalcified blood incubated in catheter segments, clot formation; design: species or system human; conditions: 15 cm catheter segment, frosted region, coated according to Example 2, 37° C., 150 minutes
Protocol: Three 15 cm segments of catheter (frosted region) coated according to Example 2 were prepared with the ends sealed using Eppendorf tubes. 40 ml of blood was collected from an adult volunteer into tri-sodium citrate (32 g/l) using the double syringe technique (the first 5 ml were discarded). 2 ml of 0.025 M calcium chloride in 0.15 M sodium chloride was added to 10 ml of citrated blood. 4 ml of recalcified blood was then added to each of the three catheter segments. The tubes were placed in a 37° C. incubator for 150 minutes. The samples were turned every 30 minutes. After this incubation the blood was drained from each of the catheters. They were then rinsed using PBS to remove any loosely bound material.

[1] = test system: blood cells / platelet cells; assay: haemocompatibility of suture materials by scanning electron microscopy after incubation in whole blood; type: cell-based, human; conditions: braided polyester yarn suture material coated at 10 mg/ml (Example 3)
Protocol: Samples of the braided material treated according to Example 3 were incubated in fresh, citrated whole blood as described in Example 10 above. After removal from the blood these materials were washed using PBS and prepared for scanning electron microscopy by fixing in an aliquot of the following solution:
83 ml 0.15 M PBS (pH 7.4) 15 ml saturated picric acid
The samples were washed in PBS and dehydrated using 70% ethanol, followed by absolute ethanol. Finally samples were sputter coated with gold (at 30 mA for 3 minutes) and observed under the electron microscope.

[2] = wettability: static contact angles with distilled water drops; type: physicochemical; conditions: for Contact angles (°) (average) / Contact angles (°), single readings: distilled water drops after 5 minutes
Protocol: The wettability of materials coated with DPPC according to the preceding examples was assessed by measurement of static contact angles using distilled water drops after 5 minutes in contact with the surface.

[3] = PE (polyethylene) treated at 10 mg/ml
[4] = PVC thoracic drain catheter, clear region, coated at 10 mg/ml (Example 2)
[5] = PVC thoracic drain catheter, frosted region, coated at 10 mg/ml (Example 2)
[6] = polystyrene petri dish spin-coated at 10 mg/ml (Example 4)
[7] = FEP IV catheters treated at 10 mg/ml in ethanol (Example 8)
[8] = hard PVC tubing coated with 5 mg/ml solution (Example 1)
[9] = hard PVC tubing coated with 10 mg/ml solution (Example 1)
[10] = polypropylene hollow fibre membrane treated at 2 mg/ml (Example 7)
[11] = polypropylene hollow fibre membrane treated at 10 mg/ml (Example 7)
[12] = polypropylene hollow fibre membrane treated at 10 mg/ml (Example 7), includes outlier
[13] = soft PVC tubing coated with 5 mg/ml solution (Example 1)
[14] = soft PVC tubing coated with 10 mg/ml solution (Example 1)
[15] = PVC thoracic drain catheter coated as Ex. 2 at 10 mg/ml
[16] = polyethylene coated as Ex. 5 at 10 mg/ml
[17] = soft PVC tubing coated as Ex. 1

CCCCCCCCCCCCCC(=O)OC[C@H](COP(=O)([O-])OCC[N+](C)(C)C)OC(=O)CCCCCCCCCCCCC [DMPC, dimyristoyl phosphatidyl choline]
% Reduction (platelet adhesion vs uncoated PE) (platelets; [3]): 94%
platelets adhered, DONOR 1 (platelets; [3]): 0.91 no. of platelets ×10^6 per 22 mm^2 area of material
platelets adhered, DONOR 2 (platelets; [3]): 1.38 no. of platelets ×10^6 per 22 mm^2 area of material
platelets adhered, DONOR 3 (platelets; [3]): 3.99 no. of platelets ×10^6 per 22 mm^2 area of material
platelets adhered, X̄ (mean of donors) (platelets; [3]): 2.09 no. of platelets ×10^6 per 22 mm^2 area of material
% Reduction (platelet adhesion vs uncoated) (platelets; [4]): 56.1%
platelets adhered, DONOR 1 (platelets; [4]): 15.26 platelets adhered ×10^6 per 3 cm lengths of catheters
platelets adhered, DONOR 2 (platelets; [4]): 8.09 platelets adhered ×10^6 per 3 cm lengths of catheters
platelets adhered, DONOR 3 (platelets; [4]): 16.78 platelets adhered ×10^6 per 3 cm lengths of catheters
platelets adhered, X̄ (mean of donors) (platelets; [4]): 13.38 platelets adhered ×10^6 per 3 cm lengths of catheters
% Reduction (platelet adhesion vs uncoated) (platelets; [5]): 95%
platelets adhered, DONOR 1 (platelets; [5]): 0.31 platelets adhered ×10^6 per 3 cm lengths of catheters
platelets adhered, DONOR 2 (platelets; [5]): 0.11 platelets adhered ×10^6 per 3 cm lengths of catheters
platelets adhered, DONOR 3 (platelets; [5]): 0.56 platelets adhered ×10^6 per 3 cm lengths of catheters
platelets adhered, X̄ (mean of donors) (platelets; [5]): 0.33 platelets adhered ×10^6 per 3 cm lengths of catheters
% Reduction (platelet adhesion vs uncoated) (platelets; [6]): 97%
platelets adhered, DONOR 1 (platelets; [6]): 1.20 no. of platelets ×10^6 adhered per petri dish (50 mm diameter)
platelets adhered, DONOR 2 (platelets; [6]): 0.26 no. of platelets ×10^6 adhered per petri dish (50 mm diameter)
platelets adhered, DONOR 3 (platelets; [6]): 3.78 no. of platelets ×10^6 adhered per petri dish (50 mm diameter)
platelets adhered, X̄ (mean of donors) (platelets; [6]): 1.75 no. of platelets ×10^6 adhered per petri dish (50 mm diameter)
drainage of blood and clot remaining in catheter (recalcified blood): Whole blood drained easily. One small clot remained attached to the surface

CCCCCCCCCCCCCCCC(=O)OC[C@H](COP(=O)([O-])OCC[N+](C)(C)C)OC(=O)CCCCCCCCCCCCCCC [DPPC, dipalmitoyl phosphatidyl choline]
% Reduction (platelet adhesion vs untreated catheters) (platelets; [7]): 65%
platelets adhered, DONOR 1 (platelets; [7]): 1.89 platelets ×10^6 per 5 cm length of catheter
platelets adhered, DONOR 2 (platelets; [7]): 1.24 platelets ×10^6 per 5 cm length of catheter
platelets adhered, DONOR 3 (platelets; [7]): 5.84 platelets ×10^6 per 5 cm length of catheter
platelets adhered, X̄ (mean of donors) (platelets; [7]): 2.99 platelets ×10^6 per 5 cm length of catheter
% Reduction (platelet adhesion vs uncoated PE) (platelets; [3]): 94%
platelets adhered, DONOR 1 (platelets; [3]): 1.58 no. of platelets ×10^6 per 22 mm^2 area of material
platelets adhered, DONOR 2 (platelets; [3]): 3.76 no. of platelets ×10^6 per 22 mm^2 area of material
platelets adhered, DONOR 3 (platelets; [3]): 1.72 no. of platelets ×10^6 per 22 mm^2 area of material
platelets adhered, X̄ (mean of donors) (platelets; [3]): 2.35 no. of platelets ×10^6 per 22 mm^2 area of material
% Reduction (platelet adhesion vs uncoated) (platelets; [4]): 97%
platelets adhered, DONOR 1 (platelets; [4]): 0.53 platelets adhered ×10^6 per 3 cm lengths of catheters
platelets adhered, DONOR 2 (platelets; [4]): 1.38 platelets adhered ×10^6 per 3 cm lengths of catheters
platelets adhered, DONOR 3 (platelets; [4]): 0.60 platelets adhered ×10^6 per 3 cm lengths of catheters
platelets adhered, X̄ (mean of donors) (platelets; [4]): 0.84 platelets adhered ×10^6 per 3 cm lengths of catheters
% Reduction (platelet adhesion vs uncoated) (platelets; [5]): 87%
platelets adhered, DONOR 1 (platelets; [5]): 0.88 platelets adhered ×10^6 per 3 cm lengths of catheters
platelets adhered, DONOR 2 (platelets; [5]): 1.05 platelets adhered ×10^6 per 3 cm lengths of catheters
platelets adhered, DONOR 3 (platelets; [5]): 0.59 platelets adhered ×10^6 per 3 cm lengths of catheters
platelets adhered, X̄ (mean of donors) (platelets; [5]): 0.84 platelets adhered ×10^6 per 3 cm lengths of catheters
platelet adhesion to coated PVC / thrombogenicity of PVC tubing (platelets; PVC tubing coated according to Example 1): large reduction in the thrombogenicity
% Reduction (platelet adhesion vs uncoated control) (platelets; [8]): 94%
platelets adhered, DONOR 2 (platelets; [8]): 0.13 no. of platelets ×10^6 per 3 cm lengths of tubing
platelets adhered, DONOR 3 (platelets; [8]): 0.19 no. of platelets ×10^6 per 3 cm lengths of tubing
platelets adhered, X̄ (mean of donors) (platelets; [8]): 0.35 no. of platelets ×10^6 per 3 cm lengths of tubing
platelets adhered, DONOR 1 (platelets; hard PVC tubing coated with 5 mg/ml solution (Example 1), 30 min, room temperature): 0.72 no. of platelets ×10^6 per 3 cm lengths of tubing
% Reduction (platelet adhesion vs uncoated control) (platelets; [9]): 97%
platelets adhered, DONOR 1 (platelets; [9]): 0.51 no. of platelets ×10^6 per 3 cm lengths of tubing
platelets adhered, DONOR 2 (platelets; [9]): 0.14 no. of platelets ×10^6 per 3 cm lengths of tubing
platelets adhered, DONOR 3 (platelets; [9]): 0.10 no. of platelets ×10^6 per 3 cm lengths of tubing
platelets adhered, X̄ (mean of donors) (platelets; [9]): 0.25 no. of platelets ×10^6 per 3 cm lengths of tubing
% Reduction (platelet adhesion vs untreated) (platelets; [10]): 91%
platelets adhered, DONOR 1 (platelets; [10]): 0.91 no. of platelets ×10^6 per 20 cm length of fibre
platelets adhered, DONOR 2 (platelets; [10]): 0.89 no. of platelets ×10^6 per 20 cm length of fibre
platelets adhered, DONOR 3 (platelets; [10]): 0.53 no. of platelets ×10^6 per 20 cm length of fibre
platelets adhered, X̄ (mean of donors) (platelets; [10]): 0.78 no. of platelets ×10^6 per 20 cm length of fibre
platelets adhered, DONOR 1 (platelets; [11]): 0.41 no. of platelets ×10^6 per 20 cm length of fibre
platelets adhered, DONOR 3 (platelets; [11]): 0.52 no. of platelets ×10^6 per 20 cm length of fibre
% Reduction (platelet adhesion vs untreated) (platelets; [12]): 56%
platelets adhered, X̄ (mean of donors) (platelets; [12]): 3.67 no. of platelets ×10^6 per 20 cm length of fibre
platelets adhered, DONOR 2 (platelets; polypropylene hollow fibre membrane treated at 10 mg/ml (Example 7), result thought to be an outlier): 10.08* no. of platelets ×10^6 per 20 cm length of fibre
% Reduction (platelet adhesion vs uncoated) (platelets; [6]): 92%
platelets adhered, DONOR 1 (platelets; [6]): 5.54 no. of platelets ×10^6 adhered per petri dish (50 mm diameter)
platelets adhered, DONOR 2 (platelets; [6]): 3.55 no. of platelets ×10^6 adhered per petri dish (50 mm diameter)
platelets adhered, DONOR 3 (platelets; [6]): 3.08 no. of platelets ×10^6 adhered per petri dish (50 mm diameter)
platelets adhered, X̄ (mean of donors) (platelets; [6]): 4.06 no. of platelets ×10^6 adhered per petri dish (50 mm diameter)
% Reduction (platelet adhesion vs uncoated control) (platelets; [13]): 96%
platelets adhered, DONOR 1 (platelets; [13]): 0.76 no. of platelets ×10^6 per 3 cm lengths of tubing
platelets adhered, DONOR 2 (platelets; [13]): 0.72 no. of platelets ×10^6 per 3 cm lengths of tubing
platelets adhered, DONOR 3 (platelets; [13]): 0.30 no. of platelets ×10^6 per 3 cm lengths of tubing
platelets adhered, X̄ (mean of donors) (platelets; [13]): 0.59 no. of platelets ×10^6 per 3 cm lengths of tubing
% Reduction (platelet adhesion vs uncoated control) (platelets; [14]): 90%
platelets adhered, DONOR 1 (platelets; [14]): 0.97 no. of platelets ×10^6 per 3 cm lengths of tubing
platelets adhered, DONOR 2 (platelets; [14]): 1.89 no. of platelets ×10^6 per 3 cm lengths of tubing
platelets adhered, DONOR 3 (platelets; [14]): 1.25 no. of platelets ×10^6 per 3 cm lengths of tubing
platelets adhered, X̄ (mean of donors) (platelets; [14]): 1.37 no. of platelets ×10^6 per 3 cm lengths of tubing
drainage of blood and clot remaining in catheter (recalcified blood): blood drained easily. One small clot remained attached to the surface
activation of platelet cells (electron microscopy) [1]: platelet cells are not activated
adhesion of blood cells (electron microscopy) [1]: adhere fewer blood cells than untreated materials
thrombogenicity vs untreated braided yarns [1]: appear less thrombogenic
Contact angles (°) (average) [2, 15]: 24 °
Contact angles (°), single readings [2, 15]: 26 ° and 19 °
Conclusion (wettability) [2, 16]: Wettable surface
Contact angles (°) (average) [2, 16]: 15 °
Contact angles (°), single readings [2, 16]: 12 ° and 21 °
Conclusion (wettability) [2, 17]: Wettable surface
Contact angles (°) (average) [2, 17]: 8 °
Contact angles (°), single readings [2, 17]: 9 ° and < 5 ° and 10 °
